Measurements taken from patent US12060330B2, “Therapeutic indazoles” (priority 2017, dated 2024).
≈ marks a conversion by molar mass, not a printed value.

Tests used:
[1] = tested on: M. tuberculosis; experiment: microbe, parasite or virus in culture; assay type: cell-based; details: for whole-cell activity (in words): SAR relative to DG167; for increase in potency over DG167: relative to DG167
[2] = tested on: M. tuberculosis; experiment: Lung CFU in infected mice (FIG. 10, PMID: 25421483); assay type: in vivo; details: compared to INH and vehicle only
[3] = tested on: M. tuberculosis; experiment: Killing studies using CFU measurements; assay type: cell-based
[4] = tested on: M. tuberculosis H37Rv; experiment: RNAseq transcriptional profiling; assay type: cell-based; details: single drug, 10× MIC, 4 h
[5] = tested on: M. tuberculosis; details: cited from earlier work
[6] = target: KasA (Mycobacterium tuberculosis, UniProt P9WQD9); experiment: Microscale thermophoresis (MST) binding assay; design: species or system M. tuberculosis; details: for EC50: read-out: EC50 (KasA interaction)
[7] = Mouse liver microsome (MLM) stability
[8] = tested on: M. fortuitum; experiment: MIC against nontuberculous mycobacteria
[9] = tested on: M. marinum; experiment: MIC against nontuberculous mycobacteria
[10] = tested on: M. avium; experiment: MIC against nontuberculous mycobacteria
[11] = tested on: mycolic acid biosynthesis; assay type: cell-based, M. tuberculosis
[12] = Kinetic solubility; details: pH 7.4 phosphate-buffered saline (PBS)
[13] = target: CYP2C19 (Homo sapiens, UniProt P33261); experiment: Cytochrome P450 (CYP) inhibition; assay type: in vitro ADME
[14] = Caco-2 permeability; details: human
[15] = Mouse pharmacokinetic studies (plasma, LC-MS/MS); assay type: in vivo; details: mice
Method: DG1167 levels in plasma were measured by LC-MS/MS in electrospray positive-ionization mode (ESI+) on a Sciex Qtrap 4000 triple-quadrupole mass combined with an Agilent 1260 HPLC using Analyst software. […] Multiple-reaction monitoring (MRM) of parent/daughter transitions in electrospray positive-ionization mode (ESI+) was used to quantify DG167. […] Extracts were vortexed for 5 minutes and centrifuged at 4000 RPM for 5 minutes. The supernatants were analyzed by LC-MS. Verapamil IS was sourced from Sigma-Aldrich.

[16] = Dose escalation and drug tolerability in mice; assay type: in vivo
Method: All animal experiments were conducted in compliance with and approved by the Institutional Animal Care and Use Committee of the New Jersey Medical School, Rutgers University.
The mice were weighed and observed daily. Their behavior, drinking and feeding patterns, and feces were monitored and recorded. Upon necropsy, liver, gall bladder, kidney and spleen pathology were observed as well.

[17] = tested on: M. smegmatis; experiment: MIC against nontuberculous mycobacteria
[18] = tested on: M. abscessus; experiment: MIC against nontuberculous mycobacteria
[19] = tested on: CYP enzymes; experiment: Cytochrome P450 (CYP) inhibition; details: CYP enzymes except CYP2C19

KasA, sequence (P9WQD9 whole entry): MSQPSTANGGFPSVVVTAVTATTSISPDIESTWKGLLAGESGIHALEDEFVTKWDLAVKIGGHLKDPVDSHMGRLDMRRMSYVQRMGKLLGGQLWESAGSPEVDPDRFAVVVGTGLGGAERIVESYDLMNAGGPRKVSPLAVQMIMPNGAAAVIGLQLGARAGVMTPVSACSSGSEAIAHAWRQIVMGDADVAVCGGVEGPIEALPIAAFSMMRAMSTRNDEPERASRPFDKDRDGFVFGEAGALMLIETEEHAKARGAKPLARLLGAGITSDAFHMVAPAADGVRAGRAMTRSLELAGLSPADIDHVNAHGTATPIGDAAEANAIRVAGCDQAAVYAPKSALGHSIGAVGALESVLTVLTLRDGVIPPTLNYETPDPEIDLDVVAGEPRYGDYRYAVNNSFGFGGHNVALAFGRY
CYP2C19, sequence (P33261 whole entry, species assumed): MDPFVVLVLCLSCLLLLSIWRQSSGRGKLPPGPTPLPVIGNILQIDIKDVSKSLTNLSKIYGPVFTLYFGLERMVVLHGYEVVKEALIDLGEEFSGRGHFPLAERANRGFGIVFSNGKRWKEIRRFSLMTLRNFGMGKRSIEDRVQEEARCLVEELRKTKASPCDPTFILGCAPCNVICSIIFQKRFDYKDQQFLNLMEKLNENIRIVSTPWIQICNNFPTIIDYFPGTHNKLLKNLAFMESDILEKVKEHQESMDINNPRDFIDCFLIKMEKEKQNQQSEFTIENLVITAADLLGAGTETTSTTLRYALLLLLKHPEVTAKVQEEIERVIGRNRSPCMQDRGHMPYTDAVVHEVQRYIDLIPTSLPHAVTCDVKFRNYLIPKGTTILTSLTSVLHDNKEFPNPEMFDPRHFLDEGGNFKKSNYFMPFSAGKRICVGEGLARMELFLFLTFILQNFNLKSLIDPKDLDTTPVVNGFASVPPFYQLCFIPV

CCCCS(=O)(=O)N(C)c1ccc2cnn(C)c2c1 [Example 32, N-methyl-N-(1-methyl-1H-indazol-6-yl)butane-1-sulfonamide]
whole-cell activity (in words) [1]: loss of activity

Cc1n[nH]c2ccc(NS(=O)(=O)CCCCF)cc12 [Example 43, 4-Fluoro-N-(3-methyl-1H-indazol-5-yl)butane-1-sulfonamide]
M. tuberculosis colony-forming units in the lungs [2]: reduction of M. tuberculosis colony-forming units in the lungs

NNC(=O)c1ccncc1 [INH, isoniazid, reference compound]
killing pattern (in words) ([3]; 10× MIC of each drug): rapid reduction of viable CFU followed by rapid re-growth
gene expression change (in words) [4]: strongly induced expression of kasA, kasB, acpM genes, the iniBAC operon

C=C/C(C)=C/[C@@]1(C)SC(=O)C(C)=C1O [thiolactomycin]
whole-cell activity in M. tuberculosis [5]: 142 µM

CCCCCS(=O)(=O)Nc1ccc2cnn(C)c2c1 [Example 11, N-(1-methyl-1H-indazol-6-yl)pentane-1-sulfonamide]
whole-cell activity (in words) [1]: increased the activity over the parent by twofold
increase in potency over DG167 [1]: 2 fold

CCCCS(=O)(=O)Nc1ccc2[nH]nc(C)c2c1 [Example 41, N-(3-methyl-1H-indazol-5-yl)butane-1-sulfonamide]
improvement over DG167 in MIC / whole-cell activity [1]: 2 ×
Kd [6]: 46.5 ± 18.7 nM

CC12C[C@@]34C=CC(=O)[C@@](C)(CCC(=O)Nc5c(O)ccc(C(=O)O)c5O)C3[C@H](CC1C4)O2 (stereo partly drawn) [platensimycin]
whole-cell activity in M. tuberculosis [5]: 27 µM

[2H]C([2H])([2H])n1ncc2ccc(NS(=O)(=O)CCCC)cc21 [Example 29, N-(1-(methyl-d3)-1H-indazol-6-yl)butane-1-sulfonamide]
MLM t1/2 ([7]; mouse liver microsomes): 16.8 min

CCCCCCS(=O)(=O)Nc1ccc2cnn(C)c2c1 [Example 12, N-(1-methyl-1H-Indazol-6-yl)hexane-1-sulfonamide]
whole-cell activity (in words) [1]: inactive

CCCCNC(=S)Nc1ccc2cnn(C)c2c1 [Example 33, 1-Butyl-3-(1-methyl-1H-indazol-6-yl)thiourea]
MIC ([1]; Mycobacterium tuberculosis, whole-cell): 3.1 µM (≈ 0.813 µg/mL)
whole-cell activity (in words) [1]: loss of activity

[2H]C([2H])([2H])n1ncc2ccc(NS(=O)(=O)CCCCC)cc21 [Example 30, N-(1-(methyl-d3)-1H-indazol-6-yl)pentane-1-sulfonamide]
whole-cell activity (in words) [1]: increased the activity over the parent by twofold
increase in potency over DG167 [1]: 2 fold

CCCCS(=O)(=O)Nc1ccc2cnn(C)c2c1 [DG167, N-(1-methyl-1H-indazol-6-yl)butane-1-sulfonamide]
MIC [8]: > 100 µM
MIC [9]: > 100 µM
MIC [10]: > 100 µM
accumulation of FAS-I products [11]: caused accumulation of C16-C26 short-chain fatty-acids
kinetic solubility [12]: 324 µM (≈ 86.6 µg/mL)
IC50 [13]: 12 µM
EC50 [6]: 131 ± 18.2 nM
Papp A→B [14]: 71.8 ×10⁻⁶ cm/s
Papp B→A [14]: 45.6 ×10⁻⁶ cm/s
half-life (t1/2) ([15]; IV 5 mg/kg): 19.8 min
AUC [0-t] ([15]; IV 5 mg/kg, 5% DMA/40% PEG300/55% D5W): 1751.25 ng·h/mL
AUC [0-t] ([15]; PO 25 mg/kg, 0.5% CMC/0.5% Tween 80, plasma): 8083.96 ng·h/mL
time plasma levels maintained above the MIC ([15]; single oral dose 25 mg/kg): over 4 hours
AUC [0-t] ([15]; single oral dose 25 mg/kg, plasma): 8083.96 h*ng/m
tolerability, dose escalation ([16]; 50 and 100 mg/kg, monitored 8 hours): well tolerated
dose tolerability for 5 d ([16]; 5 d, DG167 50 or 100 mg/kg, or DG167 100 mg/kg with INH 25 mg/kg): did not show any behavioral changes or weight loss
tolerability, dose escalation ([16]; higher doses (250, 500 mg/kg)): heavy breathing, hunched posture and decreased activity
MLM t1/2 ([7]; in the absence of NADPH): > 300 min
MLM t1/2 ([7]; mouse liver microsomes): 10.1 min
reduction of viable colony-forming units (CFU) ([3]; 10× or 20× MIC, over seven days): 2 log 10
gene expression change (in words) [4]: strongly induced expression of kasA, kasB, acpM genes, the iniBAC operon
MIC [17]: > 100 µM
MIC [18]: > 100 µM
CYP inhibition (in words) [19]: did not significantly inhibit

CCCCS(=O)(=O)Nc1ccc2cn[nH]c2c1 [Example 1, N-(1H-indazol-6-yl)butane-1-sulfonamide]
inhibition of mycolic acid biosynthesis [11]: did not show any inhibition
EC50 [6]: 1740 ± 221 nM
